Test results published in patent publication US20060217340A1, “Methods and products for treating hypertension by modulation of TRPC3 channel activity” (University of Vermont and State Agricultural College, priority 2005, published 2006).
“Also recorded” adds a separate entry of the source.

Tests used:
[1] = test system: pressurized rat cerebral arteries; assay: Arterial diameter recordings (constriction) in pressurized cerebral arteries; format: cell-based; conditions: for change in lumen diameter: Ca2+ returned to superfusate in the presence of UTP and nimodipine; for decrease of resting diameter: extracellular KCl raised from 5 mM to 60 mM; for myogenic tone: intravascular pressure increased from 20 to 80 mm Hg
Text: (§1) Oligodeoxynucleotide Sequences and Reverse Permeabilization. TRPC6 sense and antisense oligodeoxynucleotides (ODN's) were designed as previously described (Welsh et al 2002 Circ Res 90, 248-250) and were as follows: sense, 5′-[…]-3′ (SEQ ID: 3) and 5′-GCACACGCAGCCTCTTCAC-3′ (SEQ ID: 4) antisense, 5′-[…]-3′ (SEQ ID: 5) and 5′-[…]-3′ (SEQ ID: 6). TRPC3 sense and antisense ODN's were designed based on the rat TRPC3 gene (Ohki et al 2000 J Biol Chem 275: 39055-39060) and are as follows: sense, 5′-[…]-3′ (SEQ ID: 7) and 5′-[…]-3′ (SEQ ID: 8); anti-sense, 5′-[…]-3′ (SEQ ID: 9) and 5′-[…]-3′ (SEQ ID: 10). The last five bases on the 5′ and 3′ end were phosphorothioated in order to limit ODN degradation. For some experiments fluoroscein-isothiocyanate was conjugated to the 5′ end to allow for histological assessment of cellular uptake of the ODNs. All ODNs were synthesized and HPLC purified commercially by Qiagen (Alameda, Calif., USA). Sense and antisense ODN's (2 μM) were introduced into the arterial SMs using a reversible permeabilization procedure (Lesh et al 1995 Circ Res 77,220-230)). The arterial segments were then organ cultured for 3 days in D-MEM/F-12 culture media with L-glutamine (2 mM), penicillin (50 units/ml) and streptomycin (50 μg/ml) prior to use.
Diameter and membrane potential recordings. Endothelial cell denuded artery segments were mounted on glass pipettes in an arteriograph chamber (Living Systems, Burlington, Vt., USA), pressurized to 20 mmHg (with no flow), and superfused with warm (37° C.), gassed (95% 02/5% CO2) physiological saline solution (PSS) containing (in mM): 119 NaCl, 4.7 KCl, 24 NaHCO3, 0.2 KH2PO4, […], 1.2 MgSO4, 1.6 CaCl2, and 10.6 glucose, pH 7.4. In experiments using Ca^2+-free PSS, CaCl2 was omitted and 3 mM EGTA and 30 μM diltiazem added. In experiments with diacylglycerol induction, 300 μM of the diacylglycerol analogue OAG (1-oleyol-2-acetyl-sn-glycerol) was added. The endothelium was removed as previously described (Sun et al 1993 Endothelium 1, 115-122). To verify endothelial cell removal the arteries were pressurized to 60 mmHg and allowed to develop myogenic tone prior to exposing the vessels to 1 μM UTP. Absence of a dilation or biphasic constrictor response to 1 μM UTP indicated successful endothelial cell removal (Marelli 2001 Am J Physiol Heart Cir Physiol 281, H1759-H1766; Miyagi et al 1996 Br J Pharmacol 118, 847-856). […] Membrane potential was measured by inserting a sharp glass electrode (≈100 MΩ resistance) containing 0.5M KCl into the vessel wall. The criteria for successful vascular smooth muscle cell impalement were: (1) a sharp negative Vm deflection on entry; (2) a stable potential for at least 1 minute after entry; and (3) a sharp positive Vm deflection upon removal. Measurements were made using an electrometer (World Precision Instruments) and the data were recorded via computer using Axotape and Dataq software. Arterial diameter was measured using a video dimension analyzer (IonOptix Corporation; Milton, Mass.).
Statistical analysis. Data are expressed as means±SEM, and n indicates the number of animals. Changes in arterial diameter were measured as a percent constriction calculated as follows: [formula]

cerebral artery SMCs = assay: Membrane potential recordings in pressurized cerebral arteries; format: cell-based, rat; conditions: for resting membrane potential (Vm): before UTP; for pressure-induced depolarization of arterial SMCs: intravascular pressure increased from 20 to 80 mm Hg
Text: as §1
Diameter and membrane potential recordings. Endothelial cell denuded artery segments were mounted on glass pipettes in an arteriograph chamber (Living Systems, Burlington, Vt., USA), pressurized to 20 mmHg (with no flow), and superfused with warm (37° C.), gassed (95% 02/5% CO2) physiological saline solution (PSS) containing (in mM): 119 NaCl, 4.7 KCl, 24 NaHCO3, 0.2 KH2PO4, […], 1.2 MgSO4, 1.6 CaCl2, and 10.6 glucose, pH 7.4. In experiments using Ca^2+-free PSS, CaCl2 was omitted and 3 mM EGTA and 30 μM diltiazem added. In experiments with diacylglycerol induction, 300 μM of the diacylglycerol analogue OAG (1-oleyol-2-acetyl-sn-glycerol) was added. The endothelium was removed as previously described (Sun et al 1993 Endothelium 1, 115-122). To verify endothelial cell removal the arteries were pressurized to 60 mmHg and allowed to develop myogenic tone prior to exposing the vessels to 1 μM UTP. Absence of a dilation or biphasic constrictor response to 1 μM UTP indicated successful endothelial cell removal (Marelli 2001 Am J Physiol Heart Cir Physiol 281, H1759-H1766; Miyagi et al 1996 Br J Pharmacol 118, 847-856). Arterial diameter or membrane potential (Vm) of sense and anti-sense treated arteries was measured in the absence (control) or presence of UTP (concentration range: 0.1 to 10 μM). Membrane potential was measured by inserting a sharp glass electrode (≈100 MΩ resistance) containing 0.5M KCl into the vessel wall. The criteria for successful vascular smooth muscle cell impalement were: (1) a sharp negative Vm deflection on entry; (2) a stable potential for at least 1 minute after entry; and (3) a sharp positive Vm deflection upon removal. Measurements were made using an electrometer (World Precision Instruments) and the data were recorded via computer using Axotape and Dataq software. Arterial diameter was measured using a video dimension analyzer (IonOptix Corporation; Milton, Mass.).

[2] = 1 μM UTP, paired arteries, original recordings (FIG. 7A)

| Substance | constriction [1, 2] | constriction ([1]; 300 μM OAG) | change in lumen diameter [1] | decrease of resting diameter [1] | myogenic tone [1] | resting membrane potential (Vm) (cerebral artery SMCs) | pressure-induced depolarization of arterial SMCs (cerebral artery SMCs) | generalized inhibitory effect on arterial contractility [1] | reduction of UTP-induced constriction compared with sense-treated arteries ([1]; 10^−5 M UTP) | reduction of UTP-induced constriction compared with sense-treated arteries ([1]; 10^−6 M UTP) | constrictions versus sense treated arteries ([1]; low concentration of UTP (0.1 to 1.0 μM)) | UTP-induced depolarization of SMCs versus sense-treated arteries (cerebral artery SMCs; all UTP concentrations tested) |
| --- | --- | --- | --- | --- | --- | --- | --- | --- | --- | --- | --- | --- |
| 5′-TATTCCAGTTCATGGTTCTC-3′ (SEQ ID: 7) and 5′-TGTCTGGTCGTGTTGGTCGT-3′ (SEQ ID: 8) (phosphorothioate ends, further chemistry not given here) [TRPC3 sense, sense control ODNs based on the rat TRPC3 gene; end bases phosphorothioated] | 38% | 17±3% | −128±8 μm | 58±12% | 26±4% | −50±1 mV | 14±1 mV | – | – | – | – | – |
| 5′-GAGAACCATGAACTGGAATA-3′ (SEQ ID: 9) and 5′-ACGACCAACACGACCAGACA-3′ (SEQ ID: 10) (phosphorothioate ends, further chemistry not given here) [TRPC3 antisense, antisense ODNs based on the rat TRPC3 gene; last five bases on the 5′ and 3′ end phosphorothioated] | 30% | 1±1% | −85±17 μm | 57±9% | 27±5% | −49±2 mV | 14±1 mV | no generalized inhibitory effect | 37% | approximately 61% | significantly less | significantly less; also recorded: significantly reduced |
